Laboratory results: US20220195059A1, “Rank Pathway Inhibitors in Combination with CDK Inhibitors” (INSTITUTO DE MEDICINA MOLECULAR JOÃO LOBO ANTUNES, priority 2019, published 2022)

Assays:
[1] = test system: TNBC cells (MDA-MB-231, MDA-MB-436, MDA-MB-468, MDA-MB-157, HCC1937, BT-20); assay: Alamar blue viability assay, TNBC cell lines with or without OPG-Fc; format: cell-based, human; conditions: 7 days
Procedure: Cells were seeded in 96 well-plates (2-5×10^4 cells/mL), with or without paclitaxel (Y0000698, Sigma), doxorubicin hydrochloride (D2975000, Sigma), palbociclib (PD 0332991 isethionate, PZ0199, Sigma), ribociclib (LEE011 succinate, SC-488174, Santa Cruz), abemaciclib mesylate (LY2835219, S7158, Selleckchem), fulvestrant (S1191, Selleckchem), everolimus (#73122, StemCell Technologies), full length human OPG (SRP3132, Sigma), and OPG-Fc (Amgen). Medium was replaced every 2 days. After 7 days, 1:10 Alamar blue (Invitrogen) was added to each well and fluorescence was measured 2 hours after incubation (excitation 560 nm; emission 590 nm) in an Infinite M200 microplate reader (Tecan).
Medium was replaced every two days, and viability was assessed by Alamar blue assay.
Cells were seeded in 96 well-plates (2-5×10^4 cells/mL), with or without palbociclib (PD 0332991 isethionate, PZ0199, Sigma), ribociclib (LEE011 succinate, SC-488174, Santa Cruz), abemaciclib mesylate (LY2835219, S7158, Selleckchem), 3-ATA (sc-202414, Santa Cruz), Cdk4 inhibitor Ill (sc-202988, Santa Cruz), seliciclib (S1153, Selleckchem), and OPG-Fc (PL-33324, Amgen). Medium was replaced every 2 days. After 7 days, 1:10 Alamar blue (Invitrogen) was added to each well and fluorescence was measured 2 hours after incubation (excitation 560 nm; emission 590 nm) in an Infinite M200 microplate reader (Tecan).

[2] = test system: cyclin D1, CDK4, CDK6, Cyclin E and CDK2 expression in RANK OE (MCF-7 OE) cells; assay: Western blot of proteins involved in cyclin/CDKs complexes; format: cell-based, human; conditions: 0, 24 or 72 hours
Procedure: Membranes were blocked for 1 h at room temperature (RT) in 5% Non-Fat Dry Milk (NFDM) in PBS-0.1% Tween (PBST) for β-actin; or in 5% bovine serum albumin (BSA) (Santa Cruz) for other antibodies. […] Proteins were detected using a Novex® ECL HRP chemiluminescent substrate reagent kit (Invitrogen) according to the manufacturer's instructions, and x-ray films (Fujifilm) developed in a Curix 60 processor (AGFA), or the Amersham™ Imager 680 (GE Healthcare Life Sciences). Normalized protein expression was calculated using FIJI software and band densitometry analysis.
Briefly, expression of cyclin D1, CDK4, CDK6, Cyclin E and CDK2 were analyzed by Western blotting cell lysates of RANK OE (MDF-7 OE) cells exposed to palbociclib for 0 hours, 24 hours or 72 hours, and compared to the corresponding expression levels in the parental counterpart cells (expressing low levels of RANK; MCF-7 cells). […]

With CC(=O)c1c(C)c2cnc(Nc3ccc(N4CCNCC4)cn3)nc2n(C2CCCC2)c1=O [palbociclib] the “sensitivity of TNBC cells to CDK4/6 inhibitor (cell viability)” value [1] was “resistance” and the “CyclinD1, CDK4 and CDK2 expression upon exposure to CDK4/6 inhibitor” value [2] was “increased”.
